# According to PubChem BioAssay (NCI):
#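 Test compounds were applied to cells in 96-well plates for 48 hours at 5 doses. TGI marks complete inhibition of growth.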
# Columns and labels:
# Experiment in all cases: growth of human tumour cells (NCI), 48 h
# HL-60(TB) leukemia = tested on: HL-60(TB) leukemia
# SN12C renal = tested on: SN12C renal
# HT29 colon = tested on: HT29 colon
# KM12 colon = tested on: KM12 colon
# OVCAR-5 ovarian = tested on: OVCAR-5 ovarian
# CCRF-CEM leukemia = tested on: CCRF-CEM leukemia
# UACC-62 melanoma = tested on: UACC-62 melanoma
# T-47D breast = tested on: T-47D breast
# SK-MEL-28 melanoma = tested on: SK-MEL-28 melanoma
# SNB-75 CNS = tested on: SNB-75 CNS
# A498 renal = tested on: A498 renal
# OVCAR-3 ovarian = tested on: OVCAR-3 ovarian
# COLO 205 colon = tested on: COLO 205 colon
# PC-3 prostate = tested on: PC-3 prostate
# MDA-N = tested on: MDA-N
# NCI-H460 lung = tested on: NCI-H460 lung
# SF-539 CNS = tested on: SF-539 CNS
# A549 NSCLC = tested on: A549 NSCLC
# HCC-2998 colon = tested on: HCC-2998 colon
# HS 578T breast = tested on: HS 578T breast
# SNB-19 CNS = tested on: SNB-19 CNS
# MALME-3M melanoma = tested on: MALME-3M melanoma
# NCI-H522 lung = tested on: NCI-H522 lung
# ACHN renal = tested on: ACHN renal
# RXF 393 renal = tested on: RXF 393 renal
# K-562 leukemia = tested on: K-562 leukemia
# OVCAR-8 ovarian = tested on: OVCAR-8 ovarian
# SK-OV-3 ovarian = tested on: SK-OV-3 ovarian
# DU-145 prostate = tested on: DU-145 prostate
# NCI-H226 lung = tested on: NCI-H226 lung
# SK-MEL-2 melanoma = tested on: SK-MEL-2 melanoma
# MDA-MB-435 = tested on: MDA-MB-435
# 786-0 renal = tested on: 786-0 renal
# BT-549 breast = tested on: BT-549 breast
# SK-MEL-5 melanoma = tested on: SK-MEL-5 melanoma
# CAKI-1 renal = tested on: CAKI-1 renal
# U251 CNS = tested on: U251 CNS
# SF-268 CNS = tested on: SF-268 CNS
# IGROV1 ovarian = tested on: IGROV1 ovarian
# SF-295 CNS = tested on: SF-295 CNS
# NCI/ADR-RES ovarian = tested on: NCI/ADR-RES ovarian
# MOLT-4 leukemia = tested on: MOLT-4 leukemia
# SW-620 colon = tested on: SW-620 colon
# TK-10 renal = tested on: TK-10 renal
# UO-31 renal = tested on: UO-31 renal
# LOX IMVI melanoma = tested on: LOX IMVI melanoma
# HOP-92 NSCLC = tested on: HOP-92 NSCLC
# MCF7 breast = tested on: MCF7 breast
# UACC-257 melanoma = tested on: UACC-257 melanoma
# EKVX NSCLC = tested on: EKVX NSCLC
# HOP-62 NSCLC = tested on: HOP-62 NSCLC
# M14 melanoma = tested on: M14 melanoma
# HCT-116 colon = tested on: HCT-116 colon
# MDA-MB-231 breast = tested on: MDA-MB-231 breast
# NCI-H23 lung = tested on: NCI-H23 lung
# OVCAR-4 ovarian = tested on: OVCAR-4 ovarian
# RPMI-8226 leukemia = tested on: RPMI-8226 leukemia
# HCT-15 colon = tested on: HCT-15 colon
# SR leukemia = tested on: SR leukemia
smiles,measurement,setting,value
N#C/C(=C\c1ccc([N+](=O)[O-])o1)c1n[nH]c(Cc2ccccc2)n1,TGI,HL-60(TB) leukemia,6.83 µM
same,TGI,SN12C renal,4.03 µM
same,TGI,HT29 colon,2.83 µM
same,TGI,KM12 colon,6.69 µM
same,TGI,OVCAR-5 ovarian,3.5 µM
same,TGI,CCRF-CEM leukemia,1.81 µM
same,TGI,UACC-62 melanoma,3.55 µM
same,TGI,T-47D breast,4.2 µM
same,TGI,SK-MEL-28 melanoma,4.09 µM
same,TGI,SNB-75 CNS,6.75 µM
same,TGI,A498 renal,14.6 µM
same,TGI,OVCAR-3 ovarian,3.01 µM
same,TGI,COLO 205 colon,2.74 µM
same,TGI,PC-3 prostate,7.43 µM
same,TGI,MDA-N,4.52 µM
same,TGI,NCI-H460 lung,12.2 µM
same,TGI,SF-539 CNS,5.78 µM
same,TGI,A549 NSCLC,15 µM
same,TGI,HCC-2998 colon,3.12 µM
same,TGI,HS 578T breast,21 µM
same,TGI,SNB-19 CNS,17.3 µM
same,TGI,MALME-3M melanoma,4.4 µM
same,TGI,NCI-H522 lung,1.57 µM
same,TGI,ACHN renal,4.11 µM
same,TGI,RXF 393 renal,2.76 µM
same,TGI,K-562 leukemia,> 22.3 µM
same,TGI,OVCAR-8 ovarian,> 25.1 µM
same,TGI,SK-OV-3 ovarian,16.5 µM
same,TGI,DU-145 prostate,3 µM
same,TGI,NCI-H226 lung,6.04 µM
same,TGI,SK-MEL-2 melanoma,4.34 µM
same,TGI,MDA-MB-435,6.92 µM
same,TGI,786-0 renal,3.85 µM
same,TGI,BT-549 breast,8.46 µM
same,TGI,SK-MEL-5 melanoma,2.51 µM
same,TGI,CAKI-1 renal,3.96 µM
same,TGI,U251 CNS,10.7 µM
same,TGI,SF-268 CNS,2.91 µM
same,TGI,IGROV1 ovarian,3.11 µM
same,TGI,SF-295 CNS,20.1 µM
same,TGI,NCI/ADR-RES ovarian,12.8 µM
same,TGI,MOLT-4 leukemia,> 100 µM
same,TGI,SW-620 colon,> 100 µM
same,TGI,TK-10 renal,4.15 µM
same,TGI,UO-31 renal,9.74 µM
same,TGI,LOX IMVI melanoma,3.85 µM
same,TGI,HOP-92 NSCLC,5.85 µM
same,TGI,MCF7 breast,7.05 µM
same,TGI,UACC-257 melanoma,4.26 µM
same,TGI,EKVX NSCLC,8.31 µM
same,TGI,HOP-62 NSCLC,5.92 µM
same,TGI,M14 melanoma,3.92 µM
same,TGI,HCT-116 colon,0.668 µM
same,TGI,MDA-MB-231 breast,5 µM
same,TGI,NCI-H23 lung,2.89 µM
same,TGI,OVCAR-4 ovarian,3.55 µM
same,TGI,RPMI-8226 leukemia,1.4 µM
CC(=O)NC1CC(C(C)(C)NC(C)=O)CC=C1C (configuration not stated),TGI,HL-60(TB) leukemia,> 100 µM
same,TGI,SN12C renal,> 100 µM
same,TGI,HT29 colon,> 100 µM
same,TGI,KM12 colon,> 100 µM
same,TGI,OVCAR-5 ovarian,> 100 µM
same,TGI,CCRF-CEM leukemia,> 100 µM
same,TGI,UACC-62 melanoma,> 100 µM
same,TGI,T-47D breast,> 100 µM
same,TGI,SK-MEL-28 melanoma,> 100 µM
same,TGI,SNB-75 CNS,> 100 µM
same,TGI,OVCAR-3 ovarian,> 100 µM
same,TGI,COLO 205 colon,> 100 µM
same,TGI,PC-3 prostate,> 100 µM
same,TGI,MDA-N,> 100 µM
same,TGI,NCI-H460 lung,> 100 µM
same,TGI,HCT-15 colon,> 100 µM
same,TGI,SF-539 CNS,> 100 µM
same,TGI,A549 NSCLC,> 100 µM
same,TGI,SR leukemia,> 100 µM
same,TGI,HCC-2998 colon,> 100 µM
same,TGI,SNB-19 CNS,> 100 µM
same,TGI,NCI-H522 lung,> 100 µM
same,TGI,K-562 leukemia,> 100 µM
same,TGI,OVCAR-8 ovarian,> 100 µM
same,TGI,SK-OV-3 ovarian,> 100 µM
same,TGI,DU-145 prostate,> 100 µM
same,TGI,MDA-MB-435,> 100 µM
same,TGI,786-0 renal,> 100 µM
same,TGI,BT-549 breast,> 100 µM
same,TGI,SK-MEL-5 melanoma,> 100 µM
same,TGI,U251 CNS,> 100 µM
same,TGI,SF-268 CNS,> 100 µM
same,TGI,IGROV1 ovarian,> 100 µM
same,TGI,SF-295 CNS,> 100 µM
same,TGI,NCI/ADR-RES ovarian,> 100 µM
same,TGI,MOLT-4 leukemia,> 100 µM
same,TGI,SW-620 colon,> 100 µM
same,TGI,TK-10 renal,> 100 µM
same,TGI,UO-31 renal,> 100 µM
same,TGI,LOX IMVI melanoma,> 100 µM
same,TGI,HOP-92 NSCLC,> 100 µM
same,TGI,MCF7 breast,> 100 µM
same,TGI,UACC-257 melanoma,> 100 µM
same,TGI,EKVX NSCLC,> 100 µM
same,TGI,HOP-62 NSCLC,> 100 µM
same,TGI,M14 melanoma,> 100 µM
same,TGI,HCT-116 colon,> 100 µM
same,TGI,MDA-MB-231 breast,> 100 µM
same,TGI,NCI-H23 lung,> 100 µM
same,TGI,OVCAR-4 ovarian,> 100 µM
